Experimental data: patent US11591323B2, “Muscarinic agonists as non-steroidal and non-opioid analgesics and methods of use thereof” (Barry University, priority 2019, dated 2023)

Legend:
Design in all cases: host or cells: CHO cells, stably transfected
M1 muscarinic receptor [1] = biological target: T1, M1 muscarinic receptor (Homo sapiens, UniProt P11229); experiment: [3H]NMS competition binding, M1 CHO membranes; conditions: competition with 1 nM [3H]NMS; read-out: Inhibition constants (Ki) as negative logarithms, M1 (converted)
T1 sequence (P11229 1-460): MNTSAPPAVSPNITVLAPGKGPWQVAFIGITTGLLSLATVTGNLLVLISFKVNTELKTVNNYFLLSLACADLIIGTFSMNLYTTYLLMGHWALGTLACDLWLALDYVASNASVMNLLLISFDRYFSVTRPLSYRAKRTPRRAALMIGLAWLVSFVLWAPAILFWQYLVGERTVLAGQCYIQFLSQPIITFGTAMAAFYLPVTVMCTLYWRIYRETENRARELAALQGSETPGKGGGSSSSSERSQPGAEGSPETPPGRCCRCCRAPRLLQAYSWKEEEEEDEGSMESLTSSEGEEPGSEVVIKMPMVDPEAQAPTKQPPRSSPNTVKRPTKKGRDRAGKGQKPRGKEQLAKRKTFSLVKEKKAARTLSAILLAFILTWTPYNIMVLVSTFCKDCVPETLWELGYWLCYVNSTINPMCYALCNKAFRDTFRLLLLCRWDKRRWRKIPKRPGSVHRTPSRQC

M2 muscarinic receptor [2] = biological target: T2, M2 muscarinic receptor (Homo sapiens, UniProt P08172); experiment: [3H]NMS competition binding, M2 CHO membranes; conditions: competition with 1 nM [3H]NMS; read-out: Inhibition constants (Ki) as negative logarithms, M2 (converted)
T2 sequence (P08172 1-466): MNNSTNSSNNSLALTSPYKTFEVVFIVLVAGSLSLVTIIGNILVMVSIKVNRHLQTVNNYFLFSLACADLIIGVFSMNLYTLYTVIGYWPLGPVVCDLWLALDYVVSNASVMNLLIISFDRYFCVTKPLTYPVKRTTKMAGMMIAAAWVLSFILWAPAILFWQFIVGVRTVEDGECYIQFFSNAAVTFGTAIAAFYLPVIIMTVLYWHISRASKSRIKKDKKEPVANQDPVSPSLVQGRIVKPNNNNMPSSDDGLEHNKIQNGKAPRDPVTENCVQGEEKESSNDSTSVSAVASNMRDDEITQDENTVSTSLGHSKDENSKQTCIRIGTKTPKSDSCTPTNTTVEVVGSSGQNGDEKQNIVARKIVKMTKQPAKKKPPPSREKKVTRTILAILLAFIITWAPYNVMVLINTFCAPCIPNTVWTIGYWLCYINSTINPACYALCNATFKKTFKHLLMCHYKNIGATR

M3 muscarinic receptor [3] = biological target: T3, M3 muscarinic receptor (Homo sapiens, UniProt P20309); experiment: [3H]NMS competition binding, M3 CHO membranes; conditions: competition with 1 nM [3H]NMS; read-out: Inhibition constants (Ki) as negative logarithms, M3 (converted)
T3 sequence (P20309 whole entry): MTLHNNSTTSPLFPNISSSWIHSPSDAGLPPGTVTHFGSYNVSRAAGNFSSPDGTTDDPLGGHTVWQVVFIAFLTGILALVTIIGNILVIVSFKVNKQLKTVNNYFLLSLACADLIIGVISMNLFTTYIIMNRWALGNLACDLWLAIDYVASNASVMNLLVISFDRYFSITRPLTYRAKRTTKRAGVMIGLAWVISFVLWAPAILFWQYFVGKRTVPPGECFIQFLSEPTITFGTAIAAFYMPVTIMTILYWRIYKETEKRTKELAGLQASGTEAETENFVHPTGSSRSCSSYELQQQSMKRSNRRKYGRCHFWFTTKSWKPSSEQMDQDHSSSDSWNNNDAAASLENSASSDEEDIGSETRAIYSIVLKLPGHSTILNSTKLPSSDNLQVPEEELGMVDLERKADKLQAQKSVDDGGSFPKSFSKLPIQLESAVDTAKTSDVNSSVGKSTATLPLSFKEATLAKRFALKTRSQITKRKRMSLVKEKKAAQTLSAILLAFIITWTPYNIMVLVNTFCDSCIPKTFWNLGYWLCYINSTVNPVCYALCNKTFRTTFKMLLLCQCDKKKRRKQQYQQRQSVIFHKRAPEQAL

M4 muscarinic receptor [4] = biological target: T4, M4 muscarinic receptor (Homo sapiens, UniProt P08173); experiment: [3H]NMS competition binding, M4 CHO membranes; conditions: competition with 1 nM [3H]NMS; read-out: Inhibition constants (Ki) as negative logarithms, M4 (converted)
T4 sequence (P08173 1-479): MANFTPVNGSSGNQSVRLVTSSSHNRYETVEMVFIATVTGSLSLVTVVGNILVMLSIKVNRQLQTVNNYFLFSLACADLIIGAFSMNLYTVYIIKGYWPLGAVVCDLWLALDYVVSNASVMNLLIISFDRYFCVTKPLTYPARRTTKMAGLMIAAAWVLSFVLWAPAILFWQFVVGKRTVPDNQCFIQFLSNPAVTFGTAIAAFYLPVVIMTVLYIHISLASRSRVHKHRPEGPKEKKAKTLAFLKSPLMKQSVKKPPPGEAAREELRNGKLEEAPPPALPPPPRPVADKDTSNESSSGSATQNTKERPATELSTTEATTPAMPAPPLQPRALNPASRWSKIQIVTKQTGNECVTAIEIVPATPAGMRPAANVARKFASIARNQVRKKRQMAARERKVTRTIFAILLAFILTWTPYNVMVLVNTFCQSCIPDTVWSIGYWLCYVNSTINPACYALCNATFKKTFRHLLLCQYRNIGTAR

M5 muscarinic receptor [5] = biological target: T5, M5 muscarinic receptor (Homo sapiens, UniProt P08912); experiment: [3H]NMS competition binding, M5 CHO membranes; conditions: competition with 1 nM [3H]NMS; read-out: Inhibition constants (Ki) as negative logarithms, M5 (converted)
T5 sequence (P08912 1-532): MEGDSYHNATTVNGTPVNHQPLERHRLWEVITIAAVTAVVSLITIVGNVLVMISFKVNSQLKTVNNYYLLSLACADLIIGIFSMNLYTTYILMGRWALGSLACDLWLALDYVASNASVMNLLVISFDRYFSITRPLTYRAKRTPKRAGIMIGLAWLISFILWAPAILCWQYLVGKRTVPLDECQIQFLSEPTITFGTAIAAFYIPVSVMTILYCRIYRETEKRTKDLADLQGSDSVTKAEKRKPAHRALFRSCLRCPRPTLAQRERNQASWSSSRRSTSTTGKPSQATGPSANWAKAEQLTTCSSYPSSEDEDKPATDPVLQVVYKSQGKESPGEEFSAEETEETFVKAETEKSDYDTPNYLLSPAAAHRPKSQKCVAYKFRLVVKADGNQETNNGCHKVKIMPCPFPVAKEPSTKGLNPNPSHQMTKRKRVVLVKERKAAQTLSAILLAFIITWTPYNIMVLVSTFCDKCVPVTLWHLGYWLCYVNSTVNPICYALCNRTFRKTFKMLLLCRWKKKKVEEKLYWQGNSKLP

M1 muscarinic receptor [6] = biological target: T1, M1 muscarinic receptor; experiment: accumulation of inositol phosphates IPX, M1 CHO cells (M1Gq); format: cell-based; conditions: M1 (↑IPX), preferential response, relative to carbachol; Tables 2, 3, 7
M2 muscarinic receptor [7] = biological target: T2, M2 muscarinic receptor; experiment: inhibition of forskolin-stimulated cAMP, M2 CHO cells (M2Gi); format: cell-based; conditions: M2 (↓cAMP), preferential response, relative to carbachol; Tables 2, 3, 7
M3 muscarinic receptor [8] = biological target: T3, M3 muscarinic receptor; experiment: accumulation of IPX, M3 CHO cells (M3Gq); format: cell-based; conditions: M3 (↑IPX), preferential response, relative to carbachol; Tables 2, 3, 7
M4 muscarinic receptor [9] = biological target: T4, M4 muscarinic receptor; experiment: inhibition of forskolin-stimulated cAMP, M4 CHO cells (M4Gi); format: cell-based; conditions: M4 (↓cAMP), preferential response, relative to carbachol; Tables 2, 3, 7
M5 muscarinic receptor [10] = biological target: T5, M5 muscarinic receptor; experiment: accumulation of IPX, M5 CHO cells (M5Gq); format: cell-based; conditions: M5 (↑IPX), preferential response, relative to carbachol; Tables 2, 3, 7

- Ki (M1 muscarinic receptor [1]): 31.6 µM
- Ki (M2 muscarinic receptor [2]): 12.6 µM
- Ki (M3 muscarinic receptor [3]): 50.1 µM
- Ki (M4 muscarinic receptor [4]): 31.6 µM
- Ki (M5 muscarinic receptor [5]): 31.6 µM
- RAi (M1 muscarinic receptor [6]): 0
- RAi (M2 muscarinic receptor [7]): 0
- RAi (M3 muscarinic receptor [8]): 0
- RAi (M4 muscarinic receptor [9]): 0
- RAi (M5 muscarinic receptor [10]): 0
SMILES: Cc1csc(CN2CC=CCC2)c1.Cl [Compound 6E, 1-[(4-methylthiophen-2-yl)methyl]-1,2,3,6-tetrahydropyridin-1-ium chloride]
